Laboratory results as given in patent US4443246A, “Herbicidal pyridyl-ethoxy-phenyl urea derivatives” (Takeda Chemical Industries, Ltd., priority 1981, dated 1984).

How the values were obtained:
[1] = Toxicity to mammals (LD50, orally in mice); conditions: mouse, in vivo, po
Corn = experiment: Phytotoxicity to crop (corn), foliar pot test; type: in vivo, Zea mays L.; conditions: 14 days after foliar spray
Procedure: 900 cm^2 -Plastic pots are packed with crop-filed soil and sown with seeds of Red root pigweed (Amaranthus retroflexus L.), Purple lambsquarter (Chenopodium album (L.) var. centrorubrum Makino), Oriental smartweed, (Polygonum Blumei Meisn.), Common purslane (Portulaca oleracea L.), Tall morningglory (Ipomoea purpurea (L.) Roth), Cocklebur (Xanthium strumarium L.), Velvetleaf (Abutilon theophrasti Medic.), Jimson weed (Datura stramonium L.) and Corn (Zea mays L.)
These test plants are grown in a greenhouse for 9-14 days. When the true leaves sprouted, these pots are placed in a chamber of 1000 cm^2, where 10 ml each of solutions each containing a given weight of the test compound is applied to each plant from the above with a small spraygun so that each drug solution is applied to leaves and stalks of the respective plants homogeneously. These pots are then left standing in the greenhouse for 14 days. Then, the above-ground portions of each of the thus treated plants, which have remained non-withering, are collected by cutting, followed by weighing while they are fresh.
The non-withering ratio is calculated on the basis of the corresponding weight of the control (non-treated) plants as 100%. The phytotoxicity and herbicidal effect of the test compound are evaluated on the basis of the following criteria. The test solution is prepared by dissolving the test compound of a given weight in 1 ml of acetone containing 1% of a surface-active agent, Tween 20® (Kao Atlas Co., Japan), which is diluted with deionized water to make the total volume to be 10 ml.
To dissolve or disperse the test compound completely in the acetone, stirring by means of super-sonic wave is employed.
Phytotoxicity to crop (corn) is indicated with the following indexes:
(The indexes 0 and 1 to crop denote the test compound can be practically applicable to crop.)

Toxicity to fishes (TLm) = conditions: in vivo
weeds = conditions: prior art, in words; cited from earlier work

## Cc1cccc(CCOc2ccc(NC(=O)N(C)C)cc2)n1 [Compound No. 1, N,N-dimethyl-N'-[4-[2-(6-methyl-2-pyridyl)ethoxy]phenyl]urea]
[1]
  LD50: ≥ 300 mg/kg
Corn; Application rate 10
  Phytotoxicity Corn: 0 (None 0)
Corn; Application rate 20
  Phytotoxicity Corn: 0 (None 0)
Toxicity to fishes (TLm)
  LC50: ≥ 10 µg/mL

## CCc1ccc(CCOc2ccc(NC(=O)N(C)C)cc2)nc1 [Compound No. 2, N,N-dimethyl-N'-[4-[2-(5-ethyl-2-pyridyl)ethoxy]phenyl]urea]
Corn; Application rate 10
  Phytotoxicity Corn: 1 (Negligible 0.1 to 12.5)
Corn; Application rate 20
  Phytotoxicity Corn: 1 (Negligible 0.1 to 12.5)

## CON(C)C(=O)Nc1ccc(OCCc2cccc(C)n2)cc1 [Compound No. 3, N-methoxy-N-methyl-N'-[4-[2-(6-methyl-2-pyridyl)ethoxy]phenyl]urea]
Corn; Application rate 10
  Phytotoxicity Corn: 1 (Negligible 0.1 to 12.5)
Corn; Application rate 20
  Phytotoxicity Corn: 1 (Negligible 0.1 to 12.5)

## CN(C)C(=O)Nc1ccc(Oc2ccc(Cl)cc2)cc1 [chloroxuron, N'-[4-(4-chlorophenoxy)phenyl]-N,N-dimethylurea]
weeds
  herbicidal activity: have herbicidal activity
